Source: ChEMBL document CHEMBL3045886, “Benzothiazole Schiff-bases as potential imaging agents for -amyloid plaques in Alzheimers disease” (Med Chem Res, 2013)
Active and inactive are the calls of the source. No cut-off for these calls is given here.

What follows are molecules tested against T1, Amyloid-beta precursor protein (Homo sapiens, UniProt P05067) (assay: Displacement of [125I]IMPY from beta amyloid (unknown origin) isolated from alzheimer's patient brain homogenates after 2 hr by gamma counting analysis).
T1 sequence (P05067 whole entry): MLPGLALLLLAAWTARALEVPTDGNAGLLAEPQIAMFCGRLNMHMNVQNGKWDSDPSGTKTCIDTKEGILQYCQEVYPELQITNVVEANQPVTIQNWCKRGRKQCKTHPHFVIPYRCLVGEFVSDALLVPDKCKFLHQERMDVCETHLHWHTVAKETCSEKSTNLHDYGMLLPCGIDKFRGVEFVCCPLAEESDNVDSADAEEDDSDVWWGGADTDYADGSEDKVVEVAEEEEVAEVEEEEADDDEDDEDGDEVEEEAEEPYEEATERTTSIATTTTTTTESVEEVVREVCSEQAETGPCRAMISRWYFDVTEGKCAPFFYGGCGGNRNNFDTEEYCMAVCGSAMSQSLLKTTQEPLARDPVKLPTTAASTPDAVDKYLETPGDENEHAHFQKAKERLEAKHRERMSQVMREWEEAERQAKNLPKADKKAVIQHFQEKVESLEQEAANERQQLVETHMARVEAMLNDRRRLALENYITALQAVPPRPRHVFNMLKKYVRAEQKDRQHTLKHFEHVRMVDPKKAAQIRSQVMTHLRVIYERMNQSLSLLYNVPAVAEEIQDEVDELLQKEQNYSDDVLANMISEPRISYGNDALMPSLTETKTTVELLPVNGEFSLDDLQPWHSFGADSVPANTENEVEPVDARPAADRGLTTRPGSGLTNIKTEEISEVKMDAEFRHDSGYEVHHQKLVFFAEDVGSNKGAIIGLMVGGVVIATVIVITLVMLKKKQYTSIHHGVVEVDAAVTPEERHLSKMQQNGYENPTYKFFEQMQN
`COc1ccc2nc(/N=C/c3ccc(Br)cc3)sc2c1` was tested, and the Ki was 106 nM.
`COc1ccc(/C=N/c2nc3ccc(OC)cc3s2)cc1` gave a Ki of 10.8 nM.
Work on `COc1ccc2nc(/N=C/c3ccc(N(C)C)cc3)sc2c1` yielded a Ki of 4.38 nM.
In the case of `COc1ccc2nc(/N=C/c3ccc(O)cc3)sc2c1`, the Ki is reported as 34.7 nM.
In the case of `COc1ccc2nc(/N=C/c3ccc(I)cc3)sc2c1`, the Ki is reported as 103 nM.
With `COc1ccc2nc(/N=C/c3ccc([N+](=O)[O-])cc3)sc2c1` the Ki was 515 nM.

Each molecule was assayed against T1, Amyloid-beta precursor protein (assay: Binding affinity to beta amyloid (unknown origin) isolated from alzheimer's patient brain homogenates at 50 uM after 20 min by fluorescence microscopic analysis relative to thioflavin S-treated control).
Type: tissue-based
`COc1ccc2nc(/N=C/c3ccc(N(C)C)cc3)sc2c1` was tested, and the Activity was “Active”.
